Measurements: PMC4303209, “A novel phosphatidylinositol 3-kinase (PI3K) inhibitor directs a potent FOXO-dependent, p53-independent cell cycle arrest phenotype characterized by the differential induction of a subset of FOXO-regulated genes” (Breast Cancer Research : BCR, 2014)

System: MCF-7 breast cancer cells
Test: Microarray gene expression analysis (Agilent whole human genome 4 x 44K; compound vs DMSO, LIMMA log2 fold change)
Assay type: cell-based
Details: Apoptosis genes

Cn1ncc2c(N3CCOCC3)nc(-c3cccc(O)c3)nc21 [ETP-45658]
TBX1 log2FC (Gene 6899): -0.252
TBX5 log2FC (Gene 6910): 0.253
TBX3 log2FC (Gene 6926): -0.702
TCF7L2 log2FC (Gene 6934): 0.069
TDGF1 log2FC (Gene 6997): -0.229
PRDX2 log2FC (Gene 7001): 0.238
TERF1 log2FC (Gene 7013): 0.607
TERT log2FC (Gene 7015): -0.174
TFAP2A log2FC (Gene 7020): -0.422
TFAP2B log2FC (Gene 7021): -0.228
TFAP4 log2FC (Gene 7023): 0.268
TGFA log2FC (Gene 7039): -0.305
TGFB1 log2FC (Gene 7040): -0.640
TGFB3 log2FC (Gene 7043): 0.297
TGFBR1 log2FC (Gene 7046): 0.107
TGFBR2 log2FC (Gene 7048): 0.848
TGM2 log2FC (Gene 7052): -0.663
THBS1 log2FC (Gene 7057): -0.941
THRA log2FC (Gene 7067): 0.422
TIA1 log2FC (Gene 7072): 0.264
TIAL1 log2FC (Gene 7073): 0.293
TIAM1 log2FC (Gene 7074): -0.410
TIMP1 log2FC (Gene 7076): -0.529
TJP1 log2FC (Gene 7082): 0.201
TLE1 log2FC (Gene 7088): 0.258
TLR2 log2FC (Gene 7097): -0.108
TLR3 log2FC (Gene 7098): 0.853
NR2E1 log2FC (Gene 7101): -0.094
TMF1 log2FC (Gene 7110): 0.560
TNF log2FC (Gene 7124): -1.647
TNFAIP1 log2FC (Gene 7126): -0.176
TNFAIP3 log2FC (Gene 7128): -0.659
TNFRSF1A log2FC (Gene 7132): -1.037
TOP2A log2FC (Gene 7153): 0.987
TP53 log2FC (Gene 7157): -0.193
TP53BP2 log2FC (Gene 7159): 0.300
TP73 log2FC (Gene 7161): -0.503
TPD52L1 log2FC (Gene 7164): 0.379
TPT1 log2FC (Gene 7178): 0.799
HSP90B1 log2FC (Gene 7184): 0.583
TRAF1 log2FC (Gene 7185): -0.690
TRAF3 log2FC (Gene 7187): -0.696
TRAF5 log2FC (Gene 7188): 0.441
TRAF6 log2FC (Gene 7189): -0.110
TRIO log2FC (Gene 7204): 0.329
TRPS1 log2FC (Gene 7227): 0.712
PHLDA2 log2FC (Gene 7262): -2.933
TWIST1 log2FC (Gene 7291): 0.401
TNFRSF4 log2FC (Gene 7293): -0.061
TYRO3 log2FC (Gene 7301): -0.084
UBA52 log2FC (Gene 7311): 0.322
UBB log2FC (Gene 7314): 0.069
UBC log2FC (Gene 7316): 0.294
UBE2B log2FC (Gene 7320): 0.582
UBE2D3 log2FC (Gene 7323): -0.312
UCN log2FC (Gene 7349): 0.210
UCP2 log2FC (Gene 7351): 0.279
UNG log2FC (Gene 7374): -0.235
VAV1 log2FC (Gene 7409): 0.573
VAV2 log2FC (Gene 7410): 0.047
VCP log2FC (Gene 7415): -0.341
VDAC1 log2FC (Gene 7416): -0.389
VDR log2FC (Gene 7421): -0.801
VEGFB log2FC (Gene 7423): -0.219
VHL log2FC (Gene 7428): 0.156
WFS1 log2FC (Gene 7466): -0.738
WNT5A log2FC (Gene 7474): 0.075
WNT7A log2FC (Gene 7476): -0.084
WNT7B log2FC (Gene 7477): -0.527
WNT10B log2FC (Gene 7480): -0.451
WNT11 log2FC (Gene 7481): -0.151
WNT9A log2FC (Gene 7483): 0.073
WRN log2FC (Gene 7486): 0.441
WT1 log2FC (Gene 7490): -0.635
XDH log2FC (Gene 7498): 0.061
XPA log2FC (Gene 7507): 0.451
XRCC2 log2FC (Gene 7516): -0.596
XRCC4 log2FC (Gene 7518): 0.589
YWHAB log2FC (Gene 7529): 0.414
YWHAE log2FC (Gene 7531): 0.239
YWHAG log2FC (Gene 7532): -0.492
YWHAH log2FC (Gene 7533): -0.469
YWHAZ log2FC (Gene 7534): -0.139
ZNF16 log2FC (Gene 7564): 0.343
PCGF2 log2FC (Gene 7703): -0.266
DAP3 log2FC (Gene 7818): 0.449
BTG2 log2FC (Gene 7832): -1.109
PAX8 log2FC (Gene 7849): 0.414
FZD5 log2FC (Gene 7855): -0.562
SCG2 log2FC (Gene 7857): 0.617
NR4A3 log2FC (Gene 8013): 0.735
LHX3 log2FC (Gene 8022): 0.038
RASSF7 log2FC (Gene 8045): 0.255
FOSL1 log2FC (Gene 8061): -2.502
CUL5 log2FC (Gene 8065): -0.432
FXR1 log2FC (Gene 8087): 0.876
HMGA2 log2FC (Gene 8091): -1.656
GDF5 log2FC (Gene 8200): -0.419
RBM10 log2FC (Gene 8241): -0.320
AXIN1 log2FC (Gene 8312): 0.481
NME5 log2FC (Gene 8382): 0.189
PLA2G6 log2FC (Gene 8398): -0.247
SRPX log2FC (Gene 8406): 0.110
STK24 log2FC (Gene 8428): -0.121
NSMAF log2FC (Gene 8439): 0.488
DYRK2 log2FC (Gene 8445): -0.546
CUL4A log2FC (Gene 8451): 0.552
CUL3 log2FC (Gene 8452): 0.137
CUL2 log2FC (Gene 8453): 0.454
CUL1 log2FC (Gene 8454): 0.479
KLF11 log2FC (Gene 8462): 1.337
OGT log2FC (Gene 8473): 0.232
IKBKG log2FC (Gene 8517): -0.398
CBX4 log2FC (Gene 8535): -0.217
API5 log2FC (Gene 8539): -0.382
YARS log2FC (Gene 8565): -0.265
MADD log2FC (Gene 8567): 0.423
UNC5C log2FC (Gene 8633): -0.082
AKR1C3 log2FC (Gene 8644): 0.209
NCOA1 log2FC (Gene 8648): 0.390
DYNLL1 log2FC (Gene 8655): -0.944
IRS2 log2FC (Gene 8660): 0.732
BECN1 log2FC (Gene 8678): 0.486
PEA15 log2FC (Gene 8682): 0.593
HYAL2 log2FC (Gene 8692): -0.387
TRADD log2FC (Gene 8717): 0.340
TNFRSF25 log2FC (Gene 8718): -0.499
RIPK1 log2FC (Gene 8737): -0.187
CRADD log2FC (Gene 8738): -0.101
HRK log2FC (Gene 8739): 0.385
RIPK2 log2FC (Gene 8767): 0.592
TNFRSF6B log2FC (Gene 8771): -1.094
FADD log2FC (Gene 8772): -0.522
TNFRSF18 log2FC (Gene 8784): -0.321
TNFRSF10D log2FC (Gene 8793): -0.444
TNFRSF10B log2FC (Gene 8795): -0.935
TNFRSF10A log2FC (Gene 8797): -0.657
TRIM24 log2FC (Gene 8805): 0.836
NRP1 log2FC (Gene 8829): -0.517
SYNGAP1 log2FC (Gene 8831): -0.373
SOCS2 log2FC (Gene 8835): 0.750
CFLAR log2FC (Gene 8837): -0.499
HDAC3 log2FC (Gene 8841): -0.217
ALKBH1 log2FC (Gene 8846): -0.105
TSC22D1 log2FC (Gene 8848): 0.485
CDK5R1 log2FC (Gene 8851): -0.154
ALDH1A2 log2FC (Gene 8854): 0.218
IER3 log2FC (Gene 8870): -1.789
ARHGEF7 log2FC (Gene 8874): 0.162
SPHK1 log2FC (Gene 8877): -0.334
SQSTM1 log2FC (Gene 8878): 0.788
SGPL1 log2FC (Gene 8879): -0.071
TAX1BP1 log2FC (Gene 8887): 1.376
BCL10 log2FC (Gene 8915): 0.158
MBD4 log2FC (Gene 8930): 0.489
NOL3 log2FC (Gene 8996): 0.514
